Results: the NIST ThermoML archive (doi:10.1016/j.fluid.2015.12.031)
Numbers after ± are expanded uncertainties.

conditions: Liquid; Resistive pulse heating

Row | Critical pressure [kPa] | Critical temperature [K] | SMILES
1 | 2700 ± 80 | 651 ± 7 | CCOC(=O)CC(=O)OCC [diethyl 1,3-propanedioate]
2 | 2290 ± 70 | 666 ± 7 | CCOC(=O)CCC(=O)OCC [diethyl butanedioate]
3 | 1990 ± 60 | 697 ± 7 | CCOC(=O)CCCCC(=O)OCC [diethyl hexanedioate]
